Assays:
physchem = type: physicochemical
Method: The synthesized lipids were tested in term of in vitro transfection efficacy and toxicity on HeLa cells. In order to perform the mentioned biological tests, appropriate LNPs had to be formulated from the synthesized lipids. The formulation technique was different in Method A and B. The particle size, PDI and zeta potential of resulting LNPs were determined by means of Dynamic Light Scattering technique (DLS). Prior to biological testing the encapsulation efficiency (EE) of the loaded LNPs was determined by using RiboGreen RNA assay. In case of Method A Luciferase-mRNA while in case of Method B GFP-mRNA was transfected into the cells. In parallel with the transfection experiments, toxicity of the investigated LNPs was determined, in case of Method A resazurin assay while in case of Method B MTT assay was used. In the case of some lipids, the apparent pKa in LNPs was determined by using TNS titration based on the method described: Angew Chem Int Ed Engl. 2012, 51 (34), 8529-8533, doi: 10.1002/anie.201203263).

[1] = Encapsulation efficiency, RiboGreen RNA assay (Method A); type: physicochemical; conditions: LNP formulated by Method A
In short: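 mRNA-LNPs (Method A formulation) diluted in TE buffer pH 7.4/7.5 and measured in duplicate with and without Triton lysis (37° C., 10 min). RiboGreen fluorescence read at ex 480/em 525. mRNA quantified against a standard curve.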

HeLa cells = test: Transfection efficiency with Luciferase-mRNA, Nano-Glo assay (Method A); type: cell-based; conditions: 100 ng Luciferase (SecNLuc) mRNA, 24 h, luminescence
In short: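 Luminescence of secreted NanoLuc in culture medium, read ~3 min after Nano-Glo reagent, reports transfection. HeLa cells grown to ~80% confluence got 100/50/10 ng mRNA per well as LNPs for 24 h, with a parallel resazurin toxicity readout.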

SMILES | pKa (physchem) | EE (%) [1] | Transfection* (Method A = 100 ng mRNA) (HeLa cells)
CCCCCCCCCCSC(CCCC)C(=O)OCCCCCCN(CCCCO)CCCCCCOC(CCCCCCC)O[Si](C)(C)CCCCCCCC (stereo not drawn) [Example 167, 15-heptyl-7-(4-hydroxybutyl)-17,17-dimethyl-14,16-dioxa-7-aza-17-silapentacosyl 2-(decylthio)hexanoate] | 6.42 | 98% | 3110369
CCCCCCCCCCSC(CCCC)C(=O)OCCCCCCN(CCCCO)CCCCCCO[Si](C)(C)OC(CCCCCCC)OCCCCCCCC (stereo not drawn) [Example 176, 17-heptyl-7-(4-hydroxybutyl)-15,15-dimethyl-14,16,18-trioxa-7-aza-15-silahexacosyl 2-(decylthio)hexanoate] | 6.48 | 95% | 12359273
CCCCCCCCOC(CCCCCCC)O[Si](C)(C)OCCCCCCN(CCCCO)CCCCCCOC(=O)C(CCCCCCCC)SCCCCC (stereo not drawn) [Example 188, 17-heptyl-7-(4-hydroxybutyl)-15,15-dimethyl-14,16,18-trioxa-7-aza-15-silahexacosyl 2-(pentylthio)decanoate] | 6.34 | 98% | 11210992
CCCCCCCCCCCOC(=O)CCCCCN(CCO)CCCCCCCCCOC(CCCCCCC)O[Si](C)(C)CCCCCC (stereo not drawn) [Example 209, undecyl 9-heptyl-20-(2-hydroxyethyl)-7,7-dimethyl-8,10-dioxa-20-aza-7-silahexacosan-26-oate] | 6.61 | 97% | 2049133
CCCCCCCCCCCOC(=O)CCCCCN(CCO)CCCCCCCCCC(OCCCCCCCC)O[Si](C)(C)CCCCCC (stereo not drawn) [Example 210, undecyl 6-((10-((hexyldimethylsilyl)oxy)-10-(octyloxy)decyl)(2-hydroxyethyl)amino)hexanoate] | 6.4 | 99% | 1936082
CCCCCCCCC(CCCCCC)CO[Si](C)(C)OC(CCCCCCC)OCCCCCCN(CCCCO)CCC[C@@H](C)C1CCC2C3CCC4C[C@H](OC)CC[C@]4(C)C3CC[C@@]21C (stereo partly drawn) [Example 223, 13-heptyl-18-hexyl-5-((4R)-4-((3R,10S,13R)-3-methoxy-10,13-dimethylhexadecahydro-1H-cyclopenta[a]phenanthren-17-yl)pentyl)-15,15-dimethyl-12,14,16-trioxa-5-aza-15-silahexacosan-1-ol] | – | 94% | 2167625
CCCCCCCCOC(CCCCCCC)O[Si](C)(C)CCCCCCN(CCCCO)CCC[C@@H](C)C1CCC2C3CCC4C[C@H](OC)CC[C@]4(C)C3CC[C@@]21C (stereo partly drawn) [Example 224, 14-heptyl-5-((4R)-4-((3R,10S,13R)-3-methoxy-10,13-dimethylhexadecahydro-1H-cyclopenta[a]phenanthren-17-yl)pentyl)-12,12-dimethyl-13,15-dioxa-5-aza-12-silatricosan-1-ol] | – | 97% | 4919513
CCCCCCCCOC(CCCCCCC)O[Si](C)(C)OCCCCCCN(CCCCO)CCC[C@@H](C)C1CCC2C3CCC4C[C@H](OC)CC[C@]4(C)C3CC[C@@]21C (stereo partly drawn) [Example 225, 15-heptyl-5-((4R)-4-((3R,10S,13R)-3-methoxy-10,13-dimethylhexadecahydro-1H-cyclopenta[a]phenanthren-17-yl)pentyl)-13,13-dimethyl-12,14,16-trioxa-5-aza-13-silatetracosan-1-ol] | – | 98% | 503272

Reference: US20260008793A1, “IONIZABLE CATIONIC LIPIDS INCORPORATING SILICON” (ALDEXCHEM KFT., priority 2022, published 2026)
